In paper PMC6680840 (Molecules, 2019):
Several values for one entry are separate records, joined by “and”; a condition that tells them apart may be missing. Equal entries are not always repeated.

How the values were obtained:
[1] = biological target: T1, AChE (from human erythrocyte) (Homo sapiens, UniProt P22303); experiment: biochemical; settings: for IC50: mean ± SD of three separate experiments; for AChE IR (%) inhibition ratio: at 50 μM
T1 construct: AChE (EC 3.1.1.8, from human erythrocyte); purchased Sigma-Aldrich (St. Louis, MO, USA); host or cells: human erythrocyte
T1 sequence (P22303 other isoform, or with tags, fused parts or gaps): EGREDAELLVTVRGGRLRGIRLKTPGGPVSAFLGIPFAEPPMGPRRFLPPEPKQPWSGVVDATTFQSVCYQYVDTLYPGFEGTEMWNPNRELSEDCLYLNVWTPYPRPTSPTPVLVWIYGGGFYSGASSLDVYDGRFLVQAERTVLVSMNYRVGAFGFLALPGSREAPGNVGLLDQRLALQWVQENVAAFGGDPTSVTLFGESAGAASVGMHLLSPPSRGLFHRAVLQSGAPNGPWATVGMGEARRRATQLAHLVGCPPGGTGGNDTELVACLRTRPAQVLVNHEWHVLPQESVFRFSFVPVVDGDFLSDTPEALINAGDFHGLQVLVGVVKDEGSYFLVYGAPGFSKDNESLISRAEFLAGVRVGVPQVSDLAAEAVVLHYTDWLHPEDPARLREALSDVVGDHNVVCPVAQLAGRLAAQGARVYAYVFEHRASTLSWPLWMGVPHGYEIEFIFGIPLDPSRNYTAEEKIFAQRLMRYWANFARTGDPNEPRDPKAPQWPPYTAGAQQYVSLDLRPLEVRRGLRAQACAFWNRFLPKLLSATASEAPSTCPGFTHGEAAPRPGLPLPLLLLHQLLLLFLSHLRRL
Method: (§1) BChE (EC 3.1.1.8, from human serum), AChE (EC […]), butyrylthiocholine (BUC) iodide, and acetylthiocholine (ATC) iodide were purchased from Sigma-Aldrich (St. Louis, MO, USA). Enzyme was dissolved and pre-prepared at 2.0 U/mL. 10 μL of enzyme, 20 μL of 0.01 M 5,5′-dithiobis(2-nitrobenzoic acid), 10 μL of tested compound, and 40 μL of PBS were pre-incubated together for 5 min. Io initiate the reaction, 20 μL of 0.01 M BUC or ATC was added. The activity was determined by measuring the increase in absorbance at 410 nm at 37 °C in 2 min intervals using Tecan Spark multimode microplate reader (Mannedorf, Switzerland). The percentage of inhibition (I) was calculated according to the formula: I = (Ac − Ai)/Ac × 100%, with Ai and Ac representing the change in the absorbance in the presence of an inhibitor and without an inhibitor, respectively.

[2] = biological target: T2, BChE (EC 3.1.1.8, from human serum) (Homo sapiens, UniProt P06276); experiment: biochemical; settings: for IC50: mean ± SD of three separate experiments; for BChE IR (%) inhibition ratio: at 50 μM
T2 construct: BChE (EC 3.1.1.8, from human serum); purchased Sigma-Aldrich (St. Louis, MO, USA); host or cells: human serum
T2 sequence (P06276 29-602): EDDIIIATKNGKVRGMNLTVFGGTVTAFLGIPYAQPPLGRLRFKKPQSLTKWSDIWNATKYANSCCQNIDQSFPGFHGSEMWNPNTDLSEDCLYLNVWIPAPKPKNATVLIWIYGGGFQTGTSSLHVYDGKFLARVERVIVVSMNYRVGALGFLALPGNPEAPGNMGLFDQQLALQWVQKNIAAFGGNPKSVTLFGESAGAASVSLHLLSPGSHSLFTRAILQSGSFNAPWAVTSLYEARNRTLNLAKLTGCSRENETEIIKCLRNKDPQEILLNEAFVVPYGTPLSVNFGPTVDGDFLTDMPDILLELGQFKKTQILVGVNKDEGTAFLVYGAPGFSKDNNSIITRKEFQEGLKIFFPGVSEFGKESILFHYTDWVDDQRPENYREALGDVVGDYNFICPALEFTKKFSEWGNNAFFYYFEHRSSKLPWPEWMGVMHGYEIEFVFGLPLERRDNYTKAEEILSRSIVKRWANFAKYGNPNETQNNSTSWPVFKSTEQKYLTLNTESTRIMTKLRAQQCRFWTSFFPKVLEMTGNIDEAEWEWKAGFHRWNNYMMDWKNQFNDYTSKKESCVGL
Method: as §1

| Structure (SMILES) | IC50 [1] | IC50 [2] | AChE IR (%) inhibition ratio [1] | BChE IR (%) inhibition ratio [2] |
| --- | --- | --- | --- | --- |
| COc1ccc2c(c1)CCN(Cc1ccc(C(=O)N3CCCC3)cc1)C2 [Compound 13, (4-((6-methoxy-3,4-dihydroisoquinolin-2(1H)-yl)methyl)phenyl)(pyrrolidin-1-yl)methanone] | 12.1 ± 0.9 µM | 12.6 ± 0.88 µM |  |  |
| O=C(Oc1ccccc1Br)c1ccc(CN2CCc3ccccc3C2)cc1 [Compound 26, 2-bromophenyl 4-((3,4-dihydroisoquinolin-2(1H)-yl)methyl)benzoate] |  |  | 26.2% | 11% |
| O=C(NCCN1CCOCC1)c1ccc(CN2CCc3ccccc3C2)cc1 [Compound 6, 4-((3,4-dihydroisoquinolin-2(1H)-yl)methyl)-N-(2-morpholinoethyl)benzamide] |  |  | 13.4% | 19.1% |
| O=C(Nc1cccc(Br)c1)c1ccc(CN2CCc3ccccc3C2)cc1 [Compound 24, N-(3-bromophenyl)-4-((3,4-dihydroisoquinolin-2(1H)-yl)methyl)benzamide] |  |  | 21.6% | 35.1% |
| O=C(Nc1ccc(Br)cc1)c1ccc(CN2CCc3ccccc3C2)cc1 [Compound 25, N-(4-bromophenyl)-4-((3,4-dihydroisoquinolin-2(1H)-yl)methyl)benzamide] |  |  | 40.6% | 8.1% |
| O=C(Nc1ccc(Cl)cc1F)c1ccc(CN2CCc3ccccc3C2)cc1 [Compound 21, N-(4-chloro-2-fluorophenyl)-4-((3,4-dihydroisoquinolin-2(1H)-yl)methyl)benzamide] |  |  | 5% | 38.6% |
| COc1cc2c(cc1OC)CN(Cc1ccc(C(=O)N3CCCC3)cc1)CC2 [Compound 14, (4-((6,7-dimethoxy-3,4-dihydroisoquinolin-2(1H)-yl)methyl)phenyl)(pyrrolidin-1-yl)methanone] | 18.2 ± 0.86 µM |  |  |  |
| O=C(Nc1ccccc1F)c1ccc(CN2CCc3ccccc3C2)cc1 [Compound 16, 4-((3,4-dihydroisoquinolin-2(1H)-yl)methyl)-N-(2-fluorophenyl)benzamide] |  | 6.9 µM and 6.93 µM | 2.1% | 74.7% |
| O=C(c1ccc(CN2CCc3ccc(Br)cc3C2)cc1)N1CCCC1 [Compound 12, (4-((7-bromo-3,4-dihydroisoquinolin-2(1H)-yl)methyl)phenyl)(pyrrolidin-1-yl)methanone] | > 50 µM | 39.4 ± 2.25 µM |  |  |
| Cc1ccc2[nH]cc(CCNC(=O)c3ccc(CN4CCc5ccccc5C4)cc3)c2c1 [Compound 29, 4-((3,4-dihydroisoquinolin-2(1H)-yl)methyl)-N-(2-(5-methyl-1H-indol-3-yl)ethyl)benzamide] |  |  | 4.6% | 6.5% |
| O=C(NCCc1c[nH]c2ccccc12)c1ccc(CN2CCc3ccccc3C2)cc1 [Compound 28, N-(2-(1H-indol-3-yl)ethyl)-4-((3,4-dihydroisoquinolin-2(1H)-yl)methyl)benzamide] |  |  | 8.4% | 1.3% |
| O=C(Nc1ccc(Br)cc1F)c1ccc(CN2CCc3ccccc3C2)cc1 [Compound 22, N-(4-bromo-2-fluorophenyl)-4-((3,4-dihydroisoquinolin-2(1H)-yl)methyl)benzamide] |  |  | 28.3% | 15.4% |
| O=C(NCCN1CCCC1)c1ccc(CN2CCc3ccccc3C2)cc1 [Compound 7, 4-((3,4-dihydroisoquinolin-2(1H)-yl)methyl)-N-(2-(pyrrolidin-1-yl)ethyl)benzamide] |  | 15.2 ± 2.33 µM | 4.4% |  |
| O=C(c1ccc(CN2CCc3cc(Br)ccc3C2)cc1)N1CCCC1 [Compound 11, (4-((6-bromo-3,4-dihydroisoquinolin-2(1H)-yl)methyl)phenyl)(pyrrolidin-1-yl)methanone] | 30.6 ± 1.82 µM | 8.38 ± 0.65 µM |  |  |
| O=C(c1ccc(CN2CCc3ccccc3C2)cc1)N1CCOCC1 [Compound 10, (4-((3,4-dihydroisoquinolin-2(1H)-yl)methyl)phenyl)(morpholino)methanone] |  |  | 3.4% | 11.2% |
| CCN1CCCC1CNC(=O)c1ccc(CN2CCc3ccccc3C2)cc1 (stereo not drawn) [Compound 8, 4-((3,4-dihydroisoquinolin-2(1H)-yl)methyl)-N-((1-ethylpyrrolidin-2-yl)methyl)benzamide] |  | 25 ± 1.27 µM | 13.3% | 63.0% |
| CC(C)N(CCNC(=O)c1ccc(CN2CCc3ccccc3C2)cc1)C(C)C [Compound 2, 4-((3,4-dihydroisoquinolin-2(1H)-yl)methyl)-N-(2-(diisopropylamino)ethyl)benzamide] | 21.5 ± 0.98 µM | 9.98 ± 0.89 µM | 56.1% | 76.4% |
| O=C(Nc1ccc(F)cc1)c1ccc(CN2CCc3ccccc3C2)cc1 [Compound 18, 4-((3,4-dihydroisoquinolin-2(1H)-yl)methyl)-N-(4-fluorophenyl)benzamide] |  |  | 7.0% | 14.1% |
| O=C(NCc1ccc(F)cc1)c1ccc(CN2CCc3ccccc3C2)cc1 [Compound 19, 4-((3,4-dihydroisoquinolin-2(1H)-yl)methyl)-N-(4-fluorobenzyl)benzamide] |  | 14.8 ± 0.58 µM | 2.3% | 83.9% |
| CCNCCNC(=O)c1ccc(CN2CCc3ccccc3C2)cc1 [Compound 4, 4-((3,4-dihydroisoquinolin-2(1H)-yl)methyl)-N-(2-(ethylamino)ethyl)benzamide] |  |  | 8.8% | 27.2% |
| O=C(NNc1ccc(F)cc1)c1ccc(CN2CCc3ccccc3C2)cc1 [Compound 20, 4-((3,4-dihydroisoquinolin-2(1H)-yl)methyl)-N2019-(4-fluorophenyl)benzohydrazide] |  |  | 21.8% | 13.2% |
| O=C(Nc1cccc(F)c1)c1ccc(CN2CCc3ccccc3C2)cc1 [Compound 17, 4-((3,4-dihydroisoquinolin-2(1H)-yl)methyl)-N-(3-fluorophenyl)benzamide] |  |  | 7.7% | 10.0% |
| COC(CNC(=O)c1ccc(CN2CCc3ccccc3C2)cc1)OC [Compound 5, 4-((3,4-dihydroisoquinolin-2(1H)-yl)methyl)-N-(2,2-dimethoxyethyl)benzamide] |  | 38.1 ± 1.68 µM | 2.7% | 56.6% |
| O=C(Nc1ccccc1)c1ccc(CN2CCc3ccccc3C2)cc1 [Compound 15, 4-((3,4-dihydroisoquinolin-2(1H)-yl)methyl)-N-phenylbenzamide] |  |  | 8% | 23.7% |
| COc1ccc2[nH]cc(CCNC(=O)c3ccc(CN4CCc5ccccc5C4)cc3)c2c1 [Compound 30, 4-((3,4-dihydroisoquinolin-2(1H)-yl)methyl)-N-(2-(5-methoxy-1H-indol-3-yl)ethyl)benzamide] |  |  | 8.3% | 1.1% |
| CN(C)CCNC(=O)c1ccc(CN2CCc3ccccc3C2)cc1 [Compound 3, 4-((3,4-dihydroisoquinolin-2(1H)-yl)methyl)-N-(2-(dimethylamino)ethyl)benzamide] |  |  | 11.4% | 36.9% |
